According to US20240207361A1, “ERYTHROPOIETIN-DERIVED PEPTIDES FOR TREATING RELAPSING-REMITTING MULTIPLE SCLEROSIS” (The United States Government as represented by the …, priority 2021, published 2024):
Entries after “also recorded” stand apart in the source; their conditions may differ.

How the values were obtained:
GFAP-luc [1] = test: GFAP-luc bioluminescence imaging flare-ups in PLP-induced relapsing-remitting EAE; assay type: in vivo, mouse; conditions: for number of imaging flare ups / GFAP-luc expression compared to sham treated: relapsing-remitting EAE, brain or spinal cord
Procedure: (§1) Bioluminescence Imaging (BLI). Bioluminescent signals were quantified using the In Vivo Imaging System 100 (IVIS: Xenogen, Alameda, CA) with a cold Charged Coupled Device (CCD) camera mounted in a dark box. Three animals were imaged simultaneously. Mice received an IV injection of 1 mg/kg D-luciferin (Xenogen) 2-3 minutes prior to imaging and were immediately anesthetized with vaporized isoflurane for imaging. The imaging signal was quantified in units of photons per second per centimeter squared per steradian (photons/s·cm2/sr) using […] Version 3.1 (Xenogen) software and integrated over 2 minutes. For signal quantification, photons were obtained from a “region of interest” (ROI) that covered 2.18 cm2 of contiguous forebrain and 5.27 cm2 of spinal cord region. Bioluminescence was expressed as a ratio of the total photons value from the central nervous system ROI to the photon value obtained from an equal sized area over the left ear, used as an endogenous control. In the acute EAE model, measurements were typically taken every 1-2 days and the average of 2 consecutive days readings were used. Bioluminescence imaging was performed every other day after disease onset and twice weekly during the later chronic phase of the illness.
(§2) JM4 treatment. The JM4 peptide was first dissolved in distilled water to 2 mg/ml and stored at −80° C. Immediately before use, the peptide solution was further diluted to 5 μg/200 μl with PBS. […] The EAE mice were randomly divided into a JM4 treated and a sham treated group. The JM4 treated EAE animals (4-10 per group) were treated daily with IV JM4 250 μg/kg of the peptide in PBS for 10-12 days. Control EAE animals were sham-treated with IV saline for the same time period. To evaluate the treatment effects, mice underwent BLI examination as well as clinical and histopathologic evaluation.
(§3) Statistical analysis. Data is presented as the mean±SEM. Two tailed t-tests were used to compare JM4 effects on BLI and clinical scores. The long-term effects of JM4 were studied in the relapsing EAE model by using each subject's average clinical score from day 60 onward. Bioluminescence was measured by the number of days where luminescence intensity in the spinal cord exceeded a threshold of 0.5 relative to the left ear. Survival data was examined using a two-tailed log-rank test. Values of p<0.05 were considered significant.

[2] = symptomatic EAE mice, literature; cited from earlier work
EAE mice = conditions: cited from earlier work
[3] = tested on: MOG-induced EAE GFAP-Luc/C57 mice; test: Clinical neurologic scoring in MOG-induced monophasic EAE; assay type: in vivo, mouse; conditions: for clinical score compared to sham treated: 5 μg IV daily for 12 days from day 9, n=8 per group
Text: (§4) Methods. Animals. Male FVB/N-Tg (GFAP-luc+/−) mice (Xenogen Corp, Alameda, CA) were crossed with either albino C57BL/6J-Tyrc-2j or SJL/J mice purchased from Charles River Laboratories (Wilmington, MA). The FI offspring were genotyped by PCR following the manufacturer's protocol. Female mice between 8-10 weeks of age positive for GFAP (GFAP-luc/C57 or GFAP-Luc/SJL) expression were used.
Induction of EAE and clinical assessment of animals. Active EAE was induced according to a standard protocol (Smith M, et al. Brain Research 1983:264:241-53). Mice were immunized on Day 0 by subcutaneous injection on both sides of the tail base with 100 μL of an emulsion composed of either PLP139-151 or MOG35-55 peptide in an equal volume of Freund's adjuvant, supplemented with 4 mg/mL killed M. tuberculosis H37Ra (Difco Laboratories, Detroit, MI). The initial dose of antigen was 100 μg of PLP peptide for inducing relapsing EAE in SJL/J mice, or 200 μg of MOG peptide per C57BL/6 mouse for induction of acute monophasic EAE. GFAP-Luc/SJL/J mice received a second PLP antigen immunization on Day 7. Immediately following these immunizations, mice received intravenous (IV) injections of 200 ng Bordetella pertussis toxin diluted in 200 μL phosphate buffered saline (PBS) (List Biological Laboratories, Campbell, CA). […] Animals were weighed and assessed daily for clinical signs of EAE by two blinded independent observers during the acute phase of illness, and followed three times a week during the later chronic phase. The monophasic EAE MOG C57BL6 model was monitored for 28-30 days and the PLP SJL/J relapsing model was followed for nearly 6 months after immunization. The clinical scoring system used to quantify behavioral neurological deficits in the EAE mouse models (Table 2) was previously described (Aquino D, et al. Journal of Neurochemistry 1990:54:1398-404). […]
Statistical analysis. […] Bioluminescence was measured by the number of days where luminescence intensity in the spinal cord exceeded a threshold of 0.5 relative to the left ear. […]

complement component C3 = test: C3/GFAP immunohistochemistry for A1 astrocyte activation in spinal cord of MOG EAE mice; assay type: in vivo, mouse
Procedure: Spinal cord (cut into 6-7 equal pieces from cervical to sacral) was frozen and serially cut at 8 μm-thick cross sections and collected on slides, then post-fixed in acetone at −20° C. for 10 min. Sections were first treated with Target Unmasking Fluid (Pan Path) at 90° C. for 10 min, and blocked in 2% normal horse serum for 10 min. Sections were incubated overnight at 4° C. with either monoclonal rat anti-mouse C3 complement (Abcam, AB11862) at 1:50 or polyclonal rabbit anti-mouse GFAP (Dako Z0334GFAP) at 1:500. The next day sections were washed in PBS three times for 10 min each and incubated with cy3 or cy2 conjugated goat anti-mouse/rat/rabbit IgG (Jackson ImmunResearch) at 1:120 working dilution for 1 hour. Sections were washed in dH2O three times for 10 min each, followed by fluorescence microscopy imaging.
Immunohistochemistry images were obtained using an Olympus BX41 fluorescent microscope (Center Valley, PA, USA) fitted with ProgRes MF cool digital camera using 4× or 10× objectives. Half of each section from different spinal levels was quantified by measuring the percent area in the structure where label exceeded a constant threshold value using Image Pro 4.0 image analysis software (BD Biosciences, Franklin Lakes, NJ).
as §3

GFAP-luc [4] = test: GFAP-luc bioluminescence imaging (BLI) in MOG-induced EAE; assay type: in vivo, mouse
Procedure: as §1, §2, §3

[5] = tested on: SJL/J relapsing-remitting EAE mice; test: Spinal cord histopathology (Luxol fast blue, SMI-32, mouse IgG) in SJL/J relapsing-remitting EAE; assay type: in vivo
Text: Histopathology. To assess CNS inflammation and demyelination at different time points after immunization, EAE mice in the JM4 peptide-treated and sham-treated groups were anesthetized and perfused with ice-cold PBS, followed by 4% paraformaldehyde into the left ventricle. Spinal cords and brain were removed. Tissues were then embedded in paraffin, sectioned and stained with Luxol-Fast Blue/PAS to determine the extent of demyelination. Five-micron paraffin sections from the high cervical, thoracic and low lumbosacral region of the spinal cord were placed on the same slide. Each slide contained a control normal spinal cord section, a sham-treated EAE cord, and spinal cord sections from JM4 treated EAE animals. Histopathologic examination was performed in blinded fashion. In addition, SMI-32 anti-neurofilament H immunohistochemical staining was completed to assess acute axonal injury (Aquino D, et al. Journal of Neurochemistry 1990:54:1398-404). In brief, 5 μm sections were de-paraffinized, treated with antigen-retrieving solution, and blocked with normal horse serum to minimize nonspecific binding. The sections were first incubated with mouse SMI-32 antibody (Sternberger Monoclonals, Lutherville, MD) diluted 1:5,000 in PBS overnight at 4° C. After two 5-minute PBS washes, the sections were incubated with biotinylated horse anti-mouse IgG (Vector Labs, Burlingame, CA), and then by horseradish peroxidase (HRP)-avidin complex (Vector Labs) for 30 minutes each. Immunostaining was visualized by reacting the sections with diaminobenzidine tetrahydrochloride (Stable DAB: Invitrogen) for 1 to 3 minutes. Excess DAB was removed by washing with distilled water and the slides were evaluated using light microscopy.

[6] = tested on: PLP-induced relapsing-remitting EAE GFAP-Luc/SJL mice; test: Clinical scoring, relapse and survival in PLP-induced relapsing-remitting EAE; assay type: in vivo, mouse; conditions: for long term clinical scores compared to sham treated: for over five months, n=4 JM-4, n=5 sham, p<0.05 at day 60 onward
Text: as §4
Induction of EAE and clinical assessment of animals. […] Mice were immunized on Day 0 by subcutaneous injection on both sides of the tail base with 100 μL of an emulsion composed of either PLP139-151 or MOG35-55 peptide in an equal volume of Freund's adjuvant, supplemented with 4 mg/mL killed M. tuberculosis H37Ra (Difco Laboratories, Detroit, MI). The initial dose of antigen was 100 μg of PLP peptide for inducing relapsing EAE in SJL/J mice, or 200 μg of MOG peptide per C57BL/6 mouse for induction of acute monophasic EAE. GFAP-Luc/SJL/J mice received a second PLP antigen immunization on Day 7. Immediately following these immunizations, mice received intravenous (IV) injections of 200 ng Bordetella pertussis toxin diluted in 200 μL phosphate buffered saline (PBS) (List Biological Laboratories, Campbell, CA). The GFAP-Luc/C57BL mice received an additional IV injection of 200 ng Bordetella pertussis toxin on post-inoculation Day 2. Animals were weighed and assessed daily for clinical signs of EAE by two blinded independent observers during the acute phase of illness, and followed three times a week during the later chronic phase. The monophasic EAE MOG C57BL6 model was monitored for 28-30 days and the PLP SJL/J relapsing model was followed for nearly 6 months after immunization. The clinical scoring system used to quantify behavioral neurological deficits in the EAE mouse models (Table 2) was previously described (Aquino D, et al. Journal of Neurochemistry 1990:54:1398-404).
Immediately before use, the peptide solution was further diluted to 5 μg/200 μl with PBS. […] Control EAE animals were sham-treated with IV saline for the same time period. To evaluate the treatment effects, mice underwent BLI examination as well as clinical and histopathologic evaluation.
Statistical analysis. Data is presented as the mean±SEM. […] Bioluminescence was measured by the number of days where luminescence intensity in the spinal cord exceeded a threshold of 0.5 relative to the left ear. Survival data was examined using a two-tailed log-rank test. Values of p<0.05 were considered significant.

[7] = Hematopoietic and other side effects; conditions: acute MOG and relapsing-remitting PLP SJL/J EAE models

With GCAEHCSLNENITVPDTKV [JM-4] the “number of spinal cord bioluminescence flare ups (mean+/−SEM)” value (GFAP-luc [1]; 5 μg IV daily for 12 days, n=8 JM-4, n=7 sham, sham 10.29+/−2.447, p<0.05) was 4.0+/−1.018, the “average daily intensity of the bioluminescent signal versus sham-treated” value (GFAP-luc [1]; chronic remitting-relapsing EAE) was “not significantly different” and the “number of imaging flare ups / GFAP-luc expression compared to sham treated” value (GFAP-luc [1]) was “substantially less; also recorded: significantly decreased”. For the same sequence, the “number of imaging flare ups / GFAP-luc expression compared to sham treated” value (GFAP-luc [1]; listed as JM4) was “significantly decreased”, the erythropoietic activity [2] was “without the activities responsible for excessive erythropoiesis” and the “decrease of dendritic cells” value (EAE mice; EAE mice) was “ten-fold”. The mononuclear cells count (EAE mice; EAE mice) was “reduced elevated mononuclear cells count to normal”, the “proinflammatory cytokines including IL-2, IL-6, TNF-alpha and INF-gamma” value (EAE mice; EAE mice) was “decreased proinflammatory cytokines” and the “T helper Th 17 positive cells” value (EAE mice; SJL/J EAE mice) was “reduce T helper Th 17 positive cells”. For the same sequence, the Treg cells (EAE mice; SJL/J EAE mice) was “expand Treg cells”, the tissue protective properties (EAE mice; symptomatic EAE mice, literature) was “robust EPO-like tissue protective properties” and the “clinical score compared to sham treated” value [3] was “significantly lower”. For the same sequence, the “clinical score compared to sham treated” value ([3]; listed as JM4) was “significant reduction in clinical score”, the “maximum mean clinical score” value ([3]; JM4 250 μg/kg IV for 12 days starting day 9 post-immunization, score scale 0-6 (Table 2), sham 3.7±0.4, p<0.05) was 2.25±0.3 and the “C3 expression in spinal cord” value (complement component C3; 24 days post immunization, JM4 250 μg/kg IV 12 days from day 9, n=7 per group, EAE 17.5+/−3.7, p<0.05) was 8.3+/−1.9. The “attenuation of A1 astrocyte activation” value (complement component C3; EAE mice) was “over 50%”, the “C3 / A1 astrocyte immunoreactivity versus untreated EAE” value (complement component C3; spinal cord) was “massive reduction of C3 positive A1 astrocytes; also recorded: significant decrease in C3 immunoreactivity” and the “peak bioluminescent values in forebrain and spinal cord compared to sham treated” value (GFAP-luc [4]; 5 μg IV daily for 12 days from day 9, n=8, p<0.05) was “significantly lower”. The “spinal cord bioluminescence signal after start of treatment, single imaged animal” value (GFAP-luc [4]; FIG. 3A, treatment started day 9) was “virtual absence of spinal cord signal by day 4”, the “GFAP-luc signal returned to baseline earlier than sham-treated group” value (GFAP-luc [4]; MOG EAE) was 3 to 4 days and the “reduction of bioluminescence from peak disease scores compared with sham animals” value (GFAP-luc [4]; at days 11 to 12) was 3-4 fold. The “spinal cord demyelination and axonal injury” value ([5]; Luxol fast blue, ventral white matter) was “protective against spinal cord demyelination and axonal injury”, the “number of injured axons (SMI-32) rimming the ventral spinal cord versus sham” value ([5]; mouse, in vivo) was “large reduction in number of injured axons” and the “IgG immunoreactivity in spinal cord (blood-brain barrier breakdown)” value ([5]; versus saline treated EAE) was “profoundly reduced”. The “clinical deficit improved earlier than sham-treated animals” value ([6]; acute phase of the disease) was 7 days, the survival ([6]; at 100 days, Kaplan-Meier, sham 50%) was 100% and the average clinical score ([6]; for 130 days, 12-day course IV 5 μg/day from day 9, sham around 2) was “under 1”. The “long term clinical scores compared to sham treated” value [6] was “remarkably reduced”, the “long term clinical scores compared to sham treated” value ([6]; listed as JM4) was “significantly lower” and the “animals remaining relapse-free by clinical scoring” value ([6]; throughout the 5-month experiment, sham 20%) was 50%. The hematogenic side effects [7] was “without the negative hematogenic side effects”.
